The values below come from ChEMBL document CHEMBL1938230, “6-Position optimization of tricyclic 4-quinolone-based inhibitors of glycogen synthase kinase-3β: discovery of nitrile derivatives with picomolar potency” (Bioorg Med Chem Lett, 2012).

pIC50: −log10 of the molar value. ≈ marks a conversion by molar mass, not a printed value.

Data set [1] concerns the target Glycogen synthase kinase-3 beta (Homo sapiens, UniProt P49841). Put plainly: Inhibition of GSK3-beta.
The test system of another data set is Escherichia coli. The data set is described as follows: Antibacterial activity against Escherichia coli ATCC 8739. The data set is classed as ADME, organism-based.
The next data set relates to Staphylococcus aureus. Put plainly: Antibacterial activity against Staphylococcus aureus Smith. The data set is classed as ADME, organism-based.

Glycogen synthase kinase-3 beta, sequence (P49841 whole entry): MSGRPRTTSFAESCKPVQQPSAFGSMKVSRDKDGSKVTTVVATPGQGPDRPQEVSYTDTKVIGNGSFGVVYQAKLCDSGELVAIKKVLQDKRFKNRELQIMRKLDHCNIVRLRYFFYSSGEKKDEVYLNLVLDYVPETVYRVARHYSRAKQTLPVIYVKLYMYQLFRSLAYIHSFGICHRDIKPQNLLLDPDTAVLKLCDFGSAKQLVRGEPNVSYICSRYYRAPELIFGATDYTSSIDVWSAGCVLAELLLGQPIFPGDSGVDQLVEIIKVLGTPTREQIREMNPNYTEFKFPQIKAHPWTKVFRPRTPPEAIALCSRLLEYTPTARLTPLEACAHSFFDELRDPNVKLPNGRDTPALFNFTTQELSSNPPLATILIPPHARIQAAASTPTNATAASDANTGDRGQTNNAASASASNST

Usually pIC50 stands for the IC50 on a negative log10 scale, so that one unit is a factor of ten. Read a high pIC50 as a small IC50. Molecule `C[C@H]1COc2c(NCCNc3ccccn3)c(F)c(N)c3c(=O)c(C#N)cn1c23` showed a pIC50 in data set [1] of 9.24.

For the molecule `C[C@H]1COc2c(NCCCc3ccccc3)c(F)c(N)c3c(=O)c(C(N)=O)cn1c23`, in data set [1], the pIC50 was 7.17. Also, the MIC in the data set on Escherichia coli was more than 78 µM; with Staphylococcus aureus, 78 µM (≈ 32 µg/mL).

As for `C[C@H]1COc2c(NCCCc3ccccc3)c(F)c(N)c3c(=O)c(C(=O)O)cn1c23`, the pIC50 in data set [1] is 7.40. For the same molecule, the MIC against Escherichia coli was more than 39 µM; in the data set on Staphylococcus aureus it was 2 µM (≈ 0.823 µg/mL).

Regarding `C[C@H]1COc2c(NCCCc3ccccc3)c(F)c(N)c3c(=O)c(C#N)cn1c23`, the pIC50 in data set [1] is 8.85.

On to `C[C@H]1COc2c(NCCCn3ccnc3)c(F)c(N)c3c(=O)c(C#N)cn1c23`, for which, in data set [1], the pIC50 was 9.00. The MIC against Escherichia coli and against Staphylococcus aureus was more than 306 µM throughout.

With `C[C@H]1COc2c(NCCCn3ccnc3)c(F)c(N)c3c(=O)c(C(=O)O)cn1c23`, the pIC50 in data set [1] was 6.82. Moreover, the values for the MIC against Escherichia coli and in the data set on Staphylococcus aureus were 16 µM (≈ 6.42 µg/mL) and 8 µM (≈ 3.21 µg/mL), respectively.

Take `C[C@H]1COc2c(NCCNc3ccccn3)c(F)c(N)c3c(=O)c(C(N)=O)cn1c23`: the pIC50 in data set [1] is 7.48. In addition, the MIC in the data set on Escherichia coli and against Staphylococcus aureus was more than 285 µM in each case.

As for `C[C@H]1COc2c(NCCCn3ccnc3)c(F)c(N)c3c(=O)c(C(=N)NO)cn1c23`, in data set [1], the pIC50 is 6.85.

`C[C@H]1COc2c(NCCCc3ccccn3)c(F)c(N)c3c(=O)c(-c4nnn[nH]4)cn1c23` had a pIC50 in data set [1] of 8.62. The MIC against Escherichia coli was more than 274 µM; in the data set with Staphylococcus aureus it was 69 µM (≈ 30.1 µg/mL).

The molecule `C[C@H]1COc2c(NCCCn3ccnc3)c(F)c(N)c3c(=O)c(C(N)=O)cn1c23` gave a pIC50 in data set [1] of 6.74. The MIC with Escherichia coli and in the data set with Staphylococcus aureus was more than 249 µM each time.

With `C[C@H]1COc2c(NCCNc3ccccn3)c(F)c(N)c3c(=O)c(C(=O)O)cn1c23`, the values for the MIC with Escherichia coli and in the data set with Staphylococcus aureus were 4 µM (≈ 1.65 µg/mL) and 2 µM (≈ 0.827 µg/mL), respectively.

`C[C@H]1COc2c(NCCCc3ccccn3)c(F)c(N)c3c(=O)c(C(=N)NO)cn1c23` showed a pIC50 in data set [1] of 7.15.

Consider `C[C@H]1COc2c(NCCCn3ccnc3)c(F)c(N)c3c(=O)c(-c4nnn[nH]4)cn1c23`, for which the pIC50 in data set [1] is 7.70. The MIC with Escherichia coli and in the data set with Staphylococcus aureus was more than 257 µM throughout.
